Results taken from patent US20170190705A1, “Compositions and Methods for Inhibiting BMP” (THE BRIGHAM AND WOMAN'S HOSPITAL, INC., priority 2014, published 2017).
Read-outs that look alike come from different tables or passages of the source.

Experiments:
Format in all cases: biochemical
[1] = target: LYNA (Homo sapiens, UniProt P07948); test: Kinome profiling LYNA; conditions: read-out: Inhibitory activity LYNA; for inhibition at 0.1 µM: 100 nM
Procedure: (§1) . The kinome-wide selectivity was determined following the methods previously reported by Mohedas et al., ACS Chem Biol 2013, 8, 1291-1302 and Sanvitale et al., PLoS One 2013, 8, e62721.

[2] = target: FYN (Homo sapiens, UniProt P06241); test: Kinome profiling FYN; conditions: read-out: Inhibitory activity FYN; for inhibition at 0.1 µM: 100 nM
Procedure: as §1

[3] = target: PDGFRβ (Homo sapiens, UniProt P09619); test: Kinome profiling PDGFRβ; conditions: for inhibition at 0.1 µM: 100 nM
Procedure: as §1

[4] = target: ALK (Homo sapiens, UniProt Q9UM73); test: Kinome profiling ALK; conditions: read-out: Inhibitory activity ALK; for inhibition at 0.1 µM: 100 nM
Procedure: as §1

[5] = target: CK1-γ3 (Homo sapiens, UniProt Q9Y6M4); test: Kinome profiling CK1-γ3; conditions: read-out: Inhibitory activity CK1-γ3; for inhibition at 0.1 µM: 100 nM
Procedure: as §1

[6] = target: T1, BMX (Homo sapiens, UniProt P51813); test: Kinome profiling BMX; conditions: read-out: Inhibitory activity BMX; for inhibition at 0.1 µM: 100 nM
T1 sequence (P51813 1-675): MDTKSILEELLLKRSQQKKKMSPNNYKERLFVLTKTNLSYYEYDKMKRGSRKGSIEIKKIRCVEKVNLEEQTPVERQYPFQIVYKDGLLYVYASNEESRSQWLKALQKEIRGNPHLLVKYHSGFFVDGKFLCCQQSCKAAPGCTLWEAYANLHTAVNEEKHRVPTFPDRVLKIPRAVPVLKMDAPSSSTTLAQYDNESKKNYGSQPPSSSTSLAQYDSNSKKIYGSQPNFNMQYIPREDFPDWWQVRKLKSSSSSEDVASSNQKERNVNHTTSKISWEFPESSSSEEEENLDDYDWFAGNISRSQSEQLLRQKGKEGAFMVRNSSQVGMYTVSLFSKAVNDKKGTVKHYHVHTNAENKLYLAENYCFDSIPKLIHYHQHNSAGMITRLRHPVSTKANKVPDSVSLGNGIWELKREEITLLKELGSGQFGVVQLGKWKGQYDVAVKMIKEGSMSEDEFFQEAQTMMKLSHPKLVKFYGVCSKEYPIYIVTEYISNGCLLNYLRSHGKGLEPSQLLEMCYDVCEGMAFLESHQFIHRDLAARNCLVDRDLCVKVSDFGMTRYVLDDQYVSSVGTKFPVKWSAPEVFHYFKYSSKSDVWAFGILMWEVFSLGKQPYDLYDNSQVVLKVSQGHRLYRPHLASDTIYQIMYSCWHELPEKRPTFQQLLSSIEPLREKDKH
Procedure: as §1

[7] = target: ERBB4 (Homo sapiens, UniProt Q15303); test: Kinome profiling ERBB4; conditions: read-out: Inhibitory activity ERBB4; for inhibition at 0.1 µM: 100 nM
Procedure: as §1

[8] = target: PAK5 (Homo sapiens, UniProt Q9P286); test: Kinome profiling PAK5; conditions: read-out: Inhibitory activity PAK5; for inhibition at 0.1 µM: 100 nM
Procedure: as §1

[9] = target: ERB-B2 (Homo sapiens, UniProt P04626); test: Kinome profiling ERB-B2; conditions: read-out: Inhibitory activity ERB-B2; for inhibition at 0.1 µM: 100 nM
Procedure: as §1

[10] = target: RSK2 (Homo sapiens, UniProt P51812); test: Kinome profiling RSK2; conditions: read-out: Inhibitory activity RSK2; for inhibition at 0.1 µM: 100 nM
Procedure: as §1

[11] = target: T2, PRKG1 (Homo sapiens, UniProt Q13976); test: Kinome profiling PRKG1; conditions: read-out: Inhibitory activity PRKG1; for inhibition at 0.1 µM: 100 nM
T2 sequence (Q13976 1-671): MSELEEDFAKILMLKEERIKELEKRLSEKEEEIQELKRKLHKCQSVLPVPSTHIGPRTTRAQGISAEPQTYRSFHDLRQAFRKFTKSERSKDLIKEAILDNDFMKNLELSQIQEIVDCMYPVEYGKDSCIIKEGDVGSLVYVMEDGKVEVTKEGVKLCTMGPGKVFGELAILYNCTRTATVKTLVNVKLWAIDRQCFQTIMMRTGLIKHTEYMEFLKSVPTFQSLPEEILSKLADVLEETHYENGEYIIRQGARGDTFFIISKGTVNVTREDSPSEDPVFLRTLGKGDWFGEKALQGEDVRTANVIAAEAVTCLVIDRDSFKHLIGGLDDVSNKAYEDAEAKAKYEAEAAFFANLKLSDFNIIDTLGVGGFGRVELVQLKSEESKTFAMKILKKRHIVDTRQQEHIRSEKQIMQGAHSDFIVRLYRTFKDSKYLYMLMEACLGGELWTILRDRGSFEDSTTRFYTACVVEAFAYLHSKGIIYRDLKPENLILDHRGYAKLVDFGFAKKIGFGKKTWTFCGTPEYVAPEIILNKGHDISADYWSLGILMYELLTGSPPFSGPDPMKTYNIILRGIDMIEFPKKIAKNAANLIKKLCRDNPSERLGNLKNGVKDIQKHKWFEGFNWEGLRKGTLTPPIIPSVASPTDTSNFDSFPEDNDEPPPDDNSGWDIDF
Procedure: as §1

[12] = target: PKC-η (Homo sapiens, UniProt P24723); test: Kinome profiling PKC-η; conditions: read-out: Inhibitory activity PKC-η; for inhibition at 0.1 µM: 100 nM
Procedure: as §1

[13] = Table 4, read-out: Inhibitory Activity PDGFR-BETA
[14] = read-out: Inhibitory activity PDGFRβ

PAK5, sequence (Q9P286 whole entry): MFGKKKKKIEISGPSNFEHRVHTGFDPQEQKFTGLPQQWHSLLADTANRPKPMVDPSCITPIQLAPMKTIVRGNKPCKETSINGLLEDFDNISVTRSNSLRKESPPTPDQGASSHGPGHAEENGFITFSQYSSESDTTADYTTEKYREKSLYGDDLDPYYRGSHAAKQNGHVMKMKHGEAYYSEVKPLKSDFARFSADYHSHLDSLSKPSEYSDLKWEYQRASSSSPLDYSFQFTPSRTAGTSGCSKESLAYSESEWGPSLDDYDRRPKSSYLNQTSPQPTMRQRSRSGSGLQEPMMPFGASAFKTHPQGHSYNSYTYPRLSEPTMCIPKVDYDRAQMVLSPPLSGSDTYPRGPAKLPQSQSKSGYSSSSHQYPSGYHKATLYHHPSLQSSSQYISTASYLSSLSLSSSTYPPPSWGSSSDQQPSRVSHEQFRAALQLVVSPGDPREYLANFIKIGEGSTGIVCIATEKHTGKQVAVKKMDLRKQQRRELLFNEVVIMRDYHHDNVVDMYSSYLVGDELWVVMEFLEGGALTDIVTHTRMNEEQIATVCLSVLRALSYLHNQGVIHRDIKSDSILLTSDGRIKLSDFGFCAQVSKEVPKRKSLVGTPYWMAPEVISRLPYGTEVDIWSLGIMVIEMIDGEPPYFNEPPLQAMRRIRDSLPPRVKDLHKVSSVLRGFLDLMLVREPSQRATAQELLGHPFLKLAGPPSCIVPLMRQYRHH
ALK, sequence (Q9UM73 19-1620): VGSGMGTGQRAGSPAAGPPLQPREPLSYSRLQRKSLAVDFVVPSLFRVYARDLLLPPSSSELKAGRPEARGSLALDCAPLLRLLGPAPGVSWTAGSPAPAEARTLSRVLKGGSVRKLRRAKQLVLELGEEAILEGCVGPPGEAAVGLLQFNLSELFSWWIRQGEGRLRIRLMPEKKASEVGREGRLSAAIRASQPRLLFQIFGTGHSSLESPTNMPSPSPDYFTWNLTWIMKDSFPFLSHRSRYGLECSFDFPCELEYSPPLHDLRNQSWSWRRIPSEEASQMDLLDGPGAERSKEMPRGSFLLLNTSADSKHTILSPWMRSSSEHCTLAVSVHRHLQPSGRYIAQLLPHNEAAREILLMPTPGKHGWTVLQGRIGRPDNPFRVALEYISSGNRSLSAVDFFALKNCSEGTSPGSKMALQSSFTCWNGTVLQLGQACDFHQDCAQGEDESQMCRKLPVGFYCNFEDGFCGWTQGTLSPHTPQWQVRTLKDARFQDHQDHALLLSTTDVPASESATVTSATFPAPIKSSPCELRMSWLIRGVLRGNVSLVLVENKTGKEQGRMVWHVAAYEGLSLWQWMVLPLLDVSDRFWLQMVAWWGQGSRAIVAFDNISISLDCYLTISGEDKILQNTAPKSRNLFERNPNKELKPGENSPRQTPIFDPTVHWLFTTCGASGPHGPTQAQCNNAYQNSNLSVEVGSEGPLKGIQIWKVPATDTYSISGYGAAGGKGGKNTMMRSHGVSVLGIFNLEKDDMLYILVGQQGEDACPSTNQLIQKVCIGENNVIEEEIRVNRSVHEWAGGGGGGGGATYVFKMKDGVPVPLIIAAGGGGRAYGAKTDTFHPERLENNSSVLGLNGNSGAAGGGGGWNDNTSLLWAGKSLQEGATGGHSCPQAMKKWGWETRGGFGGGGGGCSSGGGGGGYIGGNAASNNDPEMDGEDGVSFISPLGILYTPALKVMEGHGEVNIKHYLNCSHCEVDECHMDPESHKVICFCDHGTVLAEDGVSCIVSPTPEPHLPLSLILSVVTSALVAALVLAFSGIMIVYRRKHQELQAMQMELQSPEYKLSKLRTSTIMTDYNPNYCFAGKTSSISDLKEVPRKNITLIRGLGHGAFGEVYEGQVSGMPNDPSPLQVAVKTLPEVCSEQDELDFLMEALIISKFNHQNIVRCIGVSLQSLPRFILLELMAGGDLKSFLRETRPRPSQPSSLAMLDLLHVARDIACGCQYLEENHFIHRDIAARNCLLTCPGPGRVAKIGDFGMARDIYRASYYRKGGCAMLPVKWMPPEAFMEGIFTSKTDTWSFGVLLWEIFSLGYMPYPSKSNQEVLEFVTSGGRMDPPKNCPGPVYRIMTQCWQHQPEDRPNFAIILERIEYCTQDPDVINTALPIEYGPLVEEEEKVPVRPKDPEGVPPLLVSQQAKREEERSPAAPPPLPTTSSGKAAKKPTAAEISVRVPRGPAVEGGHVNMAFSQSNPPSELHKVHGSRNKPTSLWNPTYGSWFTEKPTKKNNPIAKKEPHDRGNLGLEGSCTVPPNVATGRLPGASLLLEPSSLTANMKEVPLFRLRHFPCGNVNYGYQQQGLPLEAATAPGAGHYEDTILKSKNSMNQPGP
CK1-γ3, sequence (Q9Y6M4 whole entry): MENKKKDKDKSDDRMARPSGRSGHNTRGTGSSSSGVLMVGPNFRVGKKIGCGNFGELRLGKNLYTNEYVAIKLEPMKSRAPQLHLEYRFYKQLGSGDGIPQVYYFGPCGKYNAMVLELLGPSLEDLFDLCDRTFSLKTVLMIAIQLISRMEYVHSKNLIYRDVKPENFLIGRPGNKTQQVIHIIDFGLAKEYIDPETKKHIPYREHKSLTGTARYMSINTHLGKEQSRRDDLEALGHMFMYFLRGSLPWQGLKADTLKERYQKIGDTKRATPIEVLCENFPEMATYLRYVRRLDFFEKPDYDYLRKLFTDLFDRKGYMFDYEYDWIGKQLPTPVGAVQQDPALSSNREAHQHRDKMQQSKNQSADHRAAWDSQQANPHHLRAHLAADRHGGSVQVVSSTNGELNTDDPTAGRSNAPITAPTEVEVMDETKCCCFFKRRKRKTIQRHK
PDGFRβ, sequence (P09619 33-1106): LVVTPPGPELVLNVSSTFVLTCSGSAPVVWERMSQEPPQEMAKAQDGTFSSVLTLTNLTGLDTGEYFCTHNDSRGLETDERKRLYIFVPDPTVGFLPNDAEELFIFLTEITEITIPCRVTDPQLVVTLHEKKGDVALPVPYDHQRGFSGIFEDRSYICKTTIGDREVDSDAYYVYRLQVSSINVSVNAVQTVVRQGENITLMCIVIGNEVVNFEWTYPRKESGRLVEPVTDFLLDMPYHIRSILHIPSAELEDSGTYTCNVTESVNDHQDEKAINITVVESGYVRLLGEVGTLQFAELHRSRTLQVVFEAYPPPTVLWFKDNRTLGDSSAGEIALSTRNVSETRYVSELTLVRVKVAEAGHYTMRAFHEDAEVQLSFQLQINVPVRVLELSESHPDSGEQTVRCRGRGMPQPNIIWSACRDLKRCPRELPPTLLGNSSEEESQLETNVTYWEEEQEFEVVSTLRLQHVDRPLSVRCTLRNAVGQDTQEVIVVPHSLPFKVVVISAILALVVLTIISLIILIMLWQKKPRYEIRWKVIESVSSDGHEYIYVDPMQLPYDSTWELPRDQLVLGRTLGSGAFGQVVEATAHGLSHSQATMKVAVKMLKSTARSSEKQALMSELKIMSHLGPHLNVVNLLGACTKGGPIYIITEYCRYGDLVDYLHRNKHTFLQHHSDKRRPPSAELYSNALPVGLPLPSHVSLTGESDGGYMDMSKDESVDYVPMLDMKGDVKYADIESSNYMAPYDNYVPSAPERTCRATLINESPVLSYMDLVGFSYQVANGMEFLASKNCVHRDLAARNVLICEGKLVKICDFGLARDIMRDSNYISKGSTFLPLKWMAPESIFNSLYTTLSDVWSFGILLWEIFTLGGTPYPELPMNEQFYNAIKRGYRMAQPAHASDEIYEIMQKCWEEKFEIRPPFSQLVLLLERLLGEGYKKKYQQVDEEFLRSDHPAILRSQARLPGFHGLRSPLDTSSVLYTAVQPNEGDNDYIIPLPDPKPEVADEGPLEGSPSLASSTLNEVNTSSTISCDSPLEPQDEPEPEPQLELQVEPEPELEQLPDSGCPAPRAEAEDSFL
LYNA, sequence (P07948 whole entry): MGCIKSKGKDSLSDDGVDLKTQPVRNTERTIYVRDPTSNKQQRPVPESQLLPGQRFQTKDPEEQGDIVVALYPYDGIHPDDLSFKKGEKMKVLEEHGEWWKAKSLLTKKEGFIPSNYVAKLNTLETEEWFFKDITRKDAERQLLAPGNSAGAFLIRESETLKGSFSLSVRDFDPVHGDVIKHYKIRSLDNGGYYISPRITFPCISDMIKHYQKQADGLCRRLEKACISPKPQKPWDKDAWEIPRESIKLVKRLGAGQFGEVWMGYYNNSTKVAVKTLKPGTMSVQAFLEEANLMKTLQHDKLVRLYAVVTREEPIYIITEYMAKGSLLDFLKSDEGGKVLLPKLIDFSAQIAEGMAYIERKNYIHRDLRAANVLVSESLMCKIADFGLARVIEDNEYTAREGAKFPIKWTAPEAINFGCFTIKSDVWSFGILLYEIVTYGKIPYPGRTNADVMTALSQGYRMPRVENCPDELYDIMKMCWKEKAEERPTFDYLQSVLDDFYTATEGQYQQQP
RSK2, sequence (P51812 whole entry): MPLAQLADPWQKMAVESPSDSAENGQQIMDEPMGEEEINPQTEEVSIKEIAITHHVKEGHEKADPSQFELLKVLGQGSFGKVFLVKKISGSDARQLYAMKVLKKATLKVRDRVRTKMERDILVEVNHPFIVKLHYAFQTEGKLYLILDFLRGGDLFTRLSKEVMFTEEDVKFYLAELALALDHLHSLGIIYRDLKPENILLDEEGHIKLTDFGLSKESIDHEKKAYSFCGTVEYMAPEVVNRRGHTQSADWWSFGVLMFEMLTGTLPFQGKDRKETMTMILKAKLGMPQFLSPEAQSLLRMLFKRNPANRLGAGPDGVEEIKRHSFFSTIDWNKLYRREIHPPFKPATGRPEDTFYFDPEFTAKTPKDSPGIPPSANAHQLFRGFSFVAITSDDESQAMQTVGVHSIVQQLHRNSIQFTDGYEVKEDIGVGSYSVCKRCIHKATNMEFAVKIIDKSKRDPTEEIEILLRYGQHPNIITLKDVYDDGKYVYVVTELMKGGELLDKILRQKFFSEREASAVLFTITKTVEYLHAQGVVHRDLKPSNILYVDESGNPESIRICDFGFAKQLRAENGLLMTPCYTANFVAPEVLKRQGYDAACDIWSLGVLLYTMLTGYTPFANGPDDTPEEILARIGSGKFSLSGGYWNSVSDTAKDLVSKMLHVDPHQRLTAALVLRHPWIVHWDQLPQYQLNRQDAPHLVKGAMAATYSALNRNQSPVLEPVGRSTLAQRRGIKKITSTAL

Work on COc1cc(-c2cc(-c3ccc(N4CCNCC4)cc3)cnc2C)cc(OC)c1OC [Compound 10, 1-(4-(6-methyl-5-(3,4,5-trimethoxyphenyl)pyridin-3-yl)phenyl)piperazine] yielded an inhibition at 0.1 µM [1] of 3%, an inhibition at 1 µM [1] of 29% and an inhibition at 0.1 µM [2] of 8%. It also gave an inhibition at 1 µM [2] of 36%, an inhibition at 0.1 µM [3, 13] of 17% and an inhibition at 0.1 µM [3, 14] of 17%. It also gave an inhibition at 1 µM [3, 13] of 64%, an inhibition at 1 µM [3, 14] of 64% and an inhibition at 0.1 µM [4] of 2%. The inhibition at 1 µM [4] was 7%, the inhibition at 0.1 µM [5] was 1% and the inhibition at 1 µM [5] was 10%. For the same molecule, the inhibition at 0.1 µM [6] was 7%, the inhibition at 1 µM [6] was 11% and the inhibition at 0.1 µM [7] was 4%. The inhibition at 1 µM [7] was 21%, the inhibition at 0.1 µM [8] was 1% and the inhibition at 1 µM [8] was 1%. It also gave an inhibition at 0.1 µM [9] of 0%, an inhibition at 1 µM [9] of 3% and an inhibition at 0.1 µM [10] of 1%. For the same molecule, the inhibition at 1 µM [10] was 1%, the inhibition at 0.1 µM [11] was 3% and the inhibition at 1 µM [11] was 2%. It also gave an inhibition at 0.1 µM [12] of 5% and an inhibition at 1 µM [12] of 18%.
COc1cc(-c2cc(-c3ccc(N4CCNCC4)cc3)cnc2N)cc(OC)c1OC [Compound 15, 5-(4-(piperazin-1-yl)phenyl)-3-(3,4,5-trimethoxyphenyl)pyridin-2-amine] showed an inhibition at 0.1 µM [1] of 41%, an inhibition at 1 µM [1] of 84% and an inhibition at 0.1 µM [2] of 40%. The inhibition at 1 µM [2] was 79%, the inhibition at 0.1 µM [3, 14] was 47% and the inhibition at 1 µM [3, 14] was 77%. It also gave an inhibition at 0.1 µM [4] of 6%, an inhibition at 1 µM [4] of 36% and an inhibition at 0.1 µM [5] of 7%. The inhibition at 1 µM [5] was 30%, the inhibition at 0.1 µM [6] was 5% and the inhibition at 1 µM [6] was 30%. The inhibition at 0.1 µM [7] was 9%, the inhibition at 1 µM [7] was 29% and the inhibition at 0.1 µM [8] was 9%. It also gave an inhibition at 1 µM [8] of 6%, an inhibition at 0.1 µM [9] of 0% and an inhibition at 1 µM [9] of 5%. The inhibition at 0.1 µM [10] was 0%, the inhibition at 1 µM [10] was 4% and the inhibition at 0.1 µM [11] was 0%. For the same molecule, the inhibition at 1 µM [11] was 4%, the inhibition at 0.1 µM [12] was 3% and the inhibition at 1 µM [12] was -1%.
